According to ChEMBL document CHEMBL1909046, “DrugMatrix in vitro pharmacology data”:

Experiments:
Endothelin-1 receptor = target: T1, Endothelin-1 receptor (Homo sapiens, UniProt P25101); assay type: cell membranes, Membrane; settings: cho-k1; further: in other assays of this panel Not Active means under 50% inhibition at 10 µM
T1 sequence (P25101 whole entry): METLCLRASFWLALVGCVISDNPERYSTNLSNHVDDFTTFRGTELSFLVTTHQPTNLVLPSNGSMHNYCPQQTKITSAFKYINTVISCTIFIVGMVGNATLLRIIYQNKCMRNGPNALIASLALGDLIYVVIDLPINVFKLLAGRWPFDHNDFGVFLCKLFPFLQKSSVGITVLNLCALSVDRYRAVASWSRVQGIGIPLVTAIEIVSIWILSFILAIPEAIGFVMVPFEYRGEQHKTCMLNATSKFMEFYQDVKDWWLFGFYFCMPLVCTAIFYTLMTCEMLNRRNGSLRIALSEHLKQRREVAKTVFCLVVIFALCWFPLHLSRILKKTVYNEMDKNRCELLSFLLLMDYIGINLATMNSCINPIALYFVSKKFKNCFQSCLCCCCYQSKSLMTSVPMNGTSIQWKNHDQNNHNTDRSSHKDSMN

[1] = target: T2, Alpha-2C adrenergic receptor (Homo sapiens, UniProt P18825); test: DRUGMATRIX: Adrenergic Alpha-2C radioligand binding (ligand: [3H] MK-912); assay type: cell membranes, Sf9, Membrane
T2 sequence (P18825 whole entry): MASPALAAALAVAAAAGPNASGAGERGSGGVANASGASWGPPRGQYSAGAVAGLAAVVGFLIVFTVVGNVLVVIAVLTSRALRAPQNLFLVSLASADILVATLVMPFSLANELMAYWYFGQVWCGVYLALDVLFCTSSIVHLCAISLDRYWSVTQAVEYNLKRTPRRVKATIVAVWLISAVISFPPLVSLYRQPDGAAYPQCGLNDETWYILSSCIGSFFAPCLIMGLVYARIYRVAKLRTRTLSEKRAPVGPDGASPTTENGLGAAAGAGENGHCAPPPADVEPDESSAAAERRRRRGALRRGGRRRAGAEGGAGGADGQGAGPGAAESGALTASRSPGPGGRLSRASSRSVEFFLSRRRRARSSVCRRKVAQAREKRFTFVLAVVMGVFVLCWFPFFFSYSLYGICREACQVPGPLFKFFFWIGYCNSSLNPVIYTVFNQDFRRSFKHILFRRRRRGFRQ

[2] = DRUGMATRIX: Glutamate, Kainate radioligand binding (ligand: [3H] Kainic acid); assay type: cell membranes, Rattus norvegicus, Wistar, Brain, Membrane; settings: Not Active = under 50% inhibition at 10 µM
[3] = DRUGMATRIX: Potassium Channel [KATP] radioligand binding (ligand: [3H] Glyburide); assay type: cell membranes, Membrane; settings: hit-t15; Not Active = under 50% inhibition at 10 µM
[4] = target: Beta-3 adrenergic receptor (Homo sapiens, UniProt P13945); test: DRUGMATRIX: Adrenergic beta3 radioligand binding (ligand: [125I] Cyanopindolol); assay type: cell membranes, HEK293, Membrane; settings: hek293; Not Active = under 50% inhibition at 10 µM
Beta-3 adrenergic receptor, sequence (P13945 whole entry): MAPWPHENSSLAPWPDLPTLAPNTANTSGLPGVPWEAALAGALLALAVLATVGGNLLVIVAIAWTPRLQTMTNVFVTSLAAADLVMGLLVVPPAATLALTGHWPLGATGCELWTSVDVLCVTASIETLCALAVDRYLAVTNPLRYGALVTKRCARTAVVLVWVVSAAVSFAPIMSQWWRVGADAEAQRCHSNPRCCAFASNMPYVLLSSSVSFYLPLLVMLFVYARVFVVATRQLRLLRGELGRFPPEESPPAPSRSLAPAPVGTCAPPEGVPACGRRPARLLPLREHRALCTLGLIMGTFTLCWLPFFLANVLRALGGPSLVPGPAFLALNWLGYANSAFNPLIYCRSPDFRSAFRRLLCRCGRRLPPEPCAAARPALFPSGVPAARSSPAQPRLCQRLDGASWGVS

Mu-type opioid receptor = Mu-type opioid receptor (Homo sapiens, UniProt P35372); test: DRUGMATRIX: Opiate mu (OP3, MOP) radioligand binding (ligand: [3H] Diprenorphine); assay type: cell membranes, CHO-K1, Membrane; settings: Not Active = under 50% inhibition at 10 µM
Mu-type opioid receptor, sequence (P35372 whole entry): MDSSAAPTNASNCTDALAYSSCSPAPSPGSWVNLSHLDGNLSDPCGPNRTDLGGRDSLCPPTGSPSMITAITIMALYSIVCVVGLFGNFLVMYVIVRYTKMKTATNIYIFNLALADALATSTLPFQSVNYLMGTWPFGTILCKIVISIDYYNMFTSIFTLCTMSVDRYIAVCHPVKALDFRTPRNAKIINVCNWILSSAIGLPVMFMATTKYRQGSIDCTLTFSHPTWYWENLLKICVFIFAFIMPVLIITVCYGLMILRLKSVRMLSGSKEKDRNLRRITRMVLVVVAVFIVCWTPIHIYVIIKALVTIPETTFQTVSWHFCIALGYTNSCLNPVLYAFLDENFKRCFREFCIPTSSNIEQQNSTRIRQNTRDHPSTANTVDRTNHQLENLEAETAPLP

[5] = target: Voltage-gated inwardly rectifying potassium channel KCNH2 (Homo sapiens, UniProt Q12809); settings: hek293; further: in other assays of this panel Not Active means under 50% inhibition at 10 µM
Voltage-gated inwardly rectifying potassium channel KCNH2, sequence (Q12809 whole entry): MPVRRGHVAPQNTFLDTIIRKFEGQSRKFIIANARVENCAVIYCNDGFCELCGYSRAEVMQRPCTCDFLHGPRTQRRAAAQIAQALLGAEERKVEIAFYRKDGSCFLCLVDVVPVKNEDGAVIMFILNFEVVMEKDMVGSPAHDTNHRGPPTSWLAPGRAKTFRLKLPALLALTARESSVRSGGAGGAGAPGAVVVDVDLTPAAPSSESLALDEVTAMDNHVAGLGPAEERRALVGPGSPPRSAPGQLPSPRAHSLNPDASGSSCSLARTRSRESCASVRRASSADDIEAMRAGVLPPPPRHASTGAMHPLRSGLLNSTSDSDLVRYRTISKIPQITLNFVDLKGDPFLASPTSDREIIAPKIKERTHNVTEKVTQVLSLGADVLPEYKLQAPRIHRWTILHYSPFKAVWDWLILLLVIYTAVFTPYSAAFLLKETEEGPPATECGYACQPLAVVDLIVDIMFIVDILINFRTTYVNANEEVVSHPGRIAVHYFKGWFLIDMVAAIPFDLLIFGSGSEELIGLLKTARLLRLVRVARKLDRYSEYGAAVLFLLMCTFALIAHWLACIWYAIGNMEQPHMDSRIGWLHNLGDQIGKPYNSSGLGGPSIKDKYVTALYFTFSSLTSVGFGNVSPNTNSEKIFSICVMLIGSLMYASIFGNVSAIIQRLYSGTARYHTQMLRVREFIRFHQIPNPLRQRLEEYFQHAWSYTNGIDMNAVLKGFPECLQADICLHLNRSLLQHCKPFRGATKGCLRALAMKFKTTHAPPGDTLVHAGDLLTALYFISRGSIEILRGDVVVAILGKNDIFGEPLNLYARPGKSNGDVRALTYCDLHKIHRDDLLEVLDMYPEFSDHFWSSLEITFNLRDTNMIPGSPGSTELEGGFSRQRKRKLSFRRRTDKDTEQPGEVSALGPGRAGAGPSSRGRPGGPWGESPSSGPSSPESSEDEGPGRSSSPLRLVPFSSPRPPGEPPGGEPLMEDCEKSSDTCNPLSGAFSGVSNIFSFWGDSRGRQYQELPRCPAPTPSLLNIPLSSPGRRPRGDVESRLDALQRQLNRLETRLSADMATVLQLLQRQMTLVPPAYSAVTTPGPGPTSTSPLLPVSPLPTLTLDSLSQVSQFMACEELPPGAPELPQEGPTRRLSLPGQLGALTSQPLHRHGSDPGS

[6] = target: T3, Angiotensin-converting enzyme (Oryctolagus cuniculus, UniProt P12822); test: biochemical; assay type: tissue-based, Lung;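 further: enzymatic inhibition of angiotensin-converting enzyme measured with FAPGG as the substrate; in other assays of this panel Not Active means under 50% inhibition at 10 µM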
T3 sequence (P12822 whole entry): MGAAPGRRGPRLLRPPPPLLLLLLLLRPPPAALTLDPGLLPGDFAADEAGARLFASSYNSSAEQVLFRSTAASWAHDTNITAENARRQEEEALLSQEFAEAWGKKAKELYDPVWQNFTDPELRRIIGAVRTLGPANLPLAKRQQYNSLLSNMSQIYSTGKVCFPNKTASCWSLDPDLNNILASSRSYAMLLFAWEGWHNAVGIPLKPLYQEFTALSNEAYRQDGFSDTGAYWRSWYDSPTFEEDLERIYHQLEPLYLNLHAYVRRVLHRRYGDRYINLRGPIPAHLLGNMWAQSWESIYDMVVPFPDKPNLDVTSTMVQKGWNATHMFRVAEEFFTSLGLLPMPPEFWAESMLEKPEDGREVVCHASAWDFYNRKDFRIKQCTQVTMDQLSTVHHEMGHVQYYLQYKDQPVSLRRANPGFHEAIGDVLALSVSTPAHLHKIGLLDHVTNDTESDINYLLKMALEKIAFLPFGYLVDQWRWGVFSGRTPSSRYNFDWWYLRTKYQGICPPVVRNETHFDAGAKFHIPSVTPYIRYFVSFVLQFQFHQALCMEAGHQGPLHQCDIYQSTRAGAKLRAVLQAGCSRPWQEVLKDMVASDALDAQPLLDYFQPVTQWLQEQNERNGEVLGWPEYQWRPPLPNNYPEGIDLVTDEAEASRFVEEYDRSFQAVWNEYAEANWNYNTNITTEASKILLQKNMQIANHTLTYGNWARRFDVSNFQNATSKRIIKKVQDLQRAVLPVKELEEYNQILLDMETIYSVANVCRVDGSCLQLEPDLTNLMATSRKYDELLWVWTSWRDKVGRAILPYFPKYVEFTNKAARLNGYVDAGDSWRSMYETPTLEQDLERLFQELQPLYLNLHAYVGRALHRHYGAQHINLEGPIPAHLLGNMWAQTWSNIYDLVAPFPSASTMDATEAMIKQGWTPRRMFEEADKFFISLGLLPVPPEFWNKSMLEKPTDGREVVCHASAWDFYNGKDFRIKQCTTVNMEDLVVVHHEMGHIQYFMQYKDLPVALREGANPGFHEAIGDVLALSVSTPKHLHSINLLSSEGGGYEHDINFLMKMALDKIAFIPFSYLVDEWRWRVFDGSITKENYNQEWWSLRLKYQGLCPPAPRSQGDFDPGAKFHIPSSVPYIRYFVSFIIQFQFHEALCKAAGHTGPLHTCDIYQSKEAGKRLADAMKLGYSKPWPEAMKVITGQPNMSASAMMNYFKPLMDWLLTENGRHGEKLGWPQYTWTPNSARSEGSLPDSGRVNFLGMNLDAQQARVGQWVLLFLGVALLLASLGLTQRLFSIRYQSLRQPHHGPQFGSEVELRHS

[7] = target: Prostaglandin G/H synthase 1 (Homo sapiens, UniProt P23219); test: biochemical; assay type: tissue-based, Platelet; settings: platelet;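 further: inhibition of COX-1 enzyme activity, with arachidonic acid supplied as substrate; in other assays of this panel Not Active means under 50% inhibition at 10 µM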
Prostaglandin G/H synthase 1, sequence (P23219 whole entry): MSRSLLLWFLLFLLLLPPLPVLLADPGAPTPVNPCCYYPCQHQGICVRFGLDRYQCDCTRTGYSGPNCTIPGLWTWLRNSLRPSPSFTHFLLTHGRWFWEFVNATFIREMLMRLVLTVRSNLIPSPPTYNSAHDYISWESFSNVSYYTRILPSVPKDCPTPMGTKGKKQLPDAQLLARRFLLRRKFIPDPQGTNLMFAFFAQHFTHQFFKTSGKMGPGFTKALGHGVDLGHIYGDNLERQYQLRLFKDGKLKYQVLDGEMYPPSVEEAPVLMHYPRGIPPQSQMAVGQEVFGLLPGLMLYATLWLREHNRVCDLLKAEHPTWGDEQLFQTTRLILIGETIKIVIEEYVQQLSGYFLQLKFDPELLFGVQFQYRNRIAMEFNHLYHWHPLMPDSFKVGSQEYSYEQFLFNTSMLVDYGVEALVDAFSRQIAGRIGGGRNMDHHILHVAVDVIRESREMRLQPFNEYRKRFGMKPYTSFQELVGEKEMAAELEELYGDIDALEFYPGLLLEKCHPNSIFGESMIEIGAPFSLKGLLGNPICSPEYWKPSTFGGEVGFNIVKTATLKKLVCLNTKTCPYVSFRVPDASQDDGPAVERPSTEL

Cytochrome P450 2C19 = Cytochrome P450 2C19 (Homo sapiens, UniProt P33261); settings: bti-tn-5b1-4; further: in other assays of this panel Not Active means under 50% inhibition at 10 µM
Cytochrome P450 2C19, sequence (P33261 whole entry): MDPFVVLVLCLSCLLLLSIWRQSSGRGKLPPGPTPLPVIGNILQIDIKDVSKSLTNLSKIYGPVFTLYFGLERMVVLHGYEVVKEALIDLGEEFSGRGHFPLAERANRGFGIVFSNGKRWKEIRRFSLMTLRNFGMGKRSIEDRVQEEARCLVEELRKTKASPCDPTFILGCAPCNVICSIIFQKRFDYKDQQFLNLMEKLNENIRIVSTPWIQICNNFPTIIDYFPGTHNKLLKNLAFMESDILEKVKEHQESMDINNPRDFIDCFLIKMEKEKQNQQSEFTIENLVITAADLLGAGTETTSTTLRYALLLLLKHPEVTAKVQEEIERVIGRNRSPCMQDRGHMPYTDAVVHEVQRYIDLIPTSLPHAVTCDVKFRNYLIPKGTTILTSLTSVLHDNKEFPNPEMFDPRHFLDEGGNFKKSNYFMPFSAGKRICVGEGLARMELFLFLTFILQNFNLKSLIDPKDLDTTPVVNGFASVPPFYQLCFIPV

[8] = DRUGMATRIX: Serotonin (5-Hydroxytryptamine) 5-HT3 radioligand binding (ligand: [3H] GR-65630); assay type: cell membranes, Membrane; settings: hek293; Not Active = under 50% inhibition at 10 µM
Substance-P receptor = Substance-P receptor (Homo sapiens, UniProt P25103); assay type: cell membranes, CHO, Membrane; settings: cho; further: in other assays of this panel Not Active means under 50% inhibition at 10 µM
Substance-P receptor, sequence (P25103 whole entry): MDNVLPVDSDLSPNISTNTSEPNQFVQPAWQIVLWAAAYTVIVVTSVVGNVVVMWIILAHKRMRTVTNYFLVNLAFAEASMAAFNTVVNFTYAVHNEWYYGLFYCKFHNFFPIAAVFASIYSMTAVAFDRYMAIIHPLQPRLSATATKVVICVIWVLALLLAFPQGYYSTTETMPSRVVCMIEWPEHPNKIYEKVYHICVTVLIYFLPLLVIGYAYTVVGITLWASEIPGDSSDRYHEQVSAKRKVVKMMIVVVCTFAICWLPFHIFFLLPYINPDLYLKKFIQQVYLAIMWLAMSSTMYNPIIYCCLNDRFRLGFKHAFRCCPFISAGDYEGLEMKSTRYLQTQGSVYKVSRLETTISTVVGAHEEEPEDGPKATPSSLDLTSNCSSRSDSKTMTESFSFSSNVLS

| SMILES | IC50 (Endothelin-1 receptor) | IC50 ([1]; sf9) | IC50 [2] | Ki [2] | IC50 [3] | Ki [3] | IC50 [4] | IC50 (Mu-type opioid receptor; cho-k1) | IC50 [5] | Ki [5] | IC50 [6] | IC50 [7] | IC50 (Cytochrome P450 2C19) | Ki (Cytochrome P450 2C19) | IC50 [8] | Ki [8] | IC50 (Substance-P receptor) | further results |
| --- | --- | --- | --- | --- | --- | --- | --- | --- | --- | --- | --- | --- | --- | --- | --- | --- | --- | --- |
| OCc1ccccc1 [BENZYL ALCOHOL] | Not Active | Not Active | Not Active | Not Active | Not Active | Not Active | Not Active | Not Active | Not Active | Not Active | Not Active | Not Active | Not Active | Not Active | Not Active | Not Active | Not Active | – |
| CC(C)(Oc1ccc(CCNC(=O)c2ccc(Cl)cc2)cc1)C(=O)O [BEZAFIBRATE] | Not Active | Not Active | Not Active | Not Active | Not Active | Not Active | Not Active | Not Active | Not Active | Not Active | Not Active | Not Active | Not Active | Not Active | Not Active | Not Active | Not Active | – |
| Oc1c(Cl)cc(Cl)cc1Sc1cc(Cl)cc(Cl)c1O [BITHIONOL] | Not Active | – | Not Active | Not Active | Not Active | Not Active | Not Active | – | Not Active | Not Active | Not Active | Not Active | Not Active | Not Active | Not Active | Not Active | Not Active | IC50 ([1]; read-out: IC50): 4.39 µM; Ki ([1]; read-out: Ki): 0.638 µM; Ki (Mu-type opioid receptor): 2.24 µM; IC50 (Mu-type opioid receptor; read-out: IC50): 5.51 µM |
| Brc1ccccc1 [BROMOBENZENE] | Not Active | Not Active | Not Active | Not Active | Not Active | Not Active | Not Active | Not Active | Not Active | Not Active | Not Active | Not Active | Not Active | Not Active | Not Active | Not Active | Not Active | – |
| CC[C@@]1(O)C(=O)OCc2c1cc1n(c2=O)Cc2cc3ccccc3nc2-1 [CAMPTOTHECIN] | Not Active | Not Active | Not Active | Not Active | Not Active | Not Active | Not Active | Not Active | Not Active | Not Active | Not Active | Not Active | Not Active | Not Active | Not Active | Not Active | Not Active | – |
| COCc1c(C(C)C)nc(C(C)C)c(/C=C/[C@@H](O)C[C@@H](O)CC(=O)O)c1-c1ccc(F)cc1 [CERIVASTATIN] | Not Active | Not Active | Not Active | Not Active | Not Active | Not Active | Not Active | Not Active | Not Active | Not Active | Not Active | Not Active | Not Active | Not Active | Not Active | Not Active | Not Active | – |
| O=C1CCc2cc(OCCCCc3nnnn3C3CCCCC3)ccc2N1 [CILOSTAZOL] | Not Active | Not Active | Not Active | Not Active | Not Active | Not Active | Not Active | Not Active | Not Active | Not Active | Not Active | Not Active | Not Active | Not Active | Not Active | Not Active | Not Active | – |
| COC(=O)[C@H](c1ccccc1Cl)N1CCc2sccc2C1 [CLOPIDOGREL] | Not Active | Not Active | Not Active | Not Active | Not Active | Not Active | Not Active | Not Active | Not Active | Not Active | Not Active | Not Active | Not Active | Not Active | Not Active | Not Active | Not Active | – |
